For experiment [1], the system named is caspase-9 activity in LNCaP cells. The experiment in a line: Caspase colorimetric protease assay. The experiment is classed as cell-based, human. To be noted: 24 h. The procedure:
(§1) Caspase activity was determined using ApoTarget caspase colorimetric protease assay sampler kit (KHZ1001; Invitrogen) according to the manufacturer’s instructions. Briefly, both the PCa cells were treated with increasing doses of conjugate and RESV for 24 h. The cells were then collected, washed in PBS, and lysed in 50 μl lysis buffer on ice for 10 min. After centrifugation, the supernatant containing 150 μg proteins were incubated with 200 μM of caspase-3 (Ac-DEVD-pNA), caspase-8 (Ac-IETD-pNA) and caspase-9 (Ac-LEHD-pNA) substrates respectively in reaction buffer at 37°C for 1 h in 96 well flat bottom plate. Levels of released pNA were then measured at 405 nm wavelength with ELISA plate reader (Fluostar optima, BMG Labtech, Germany). The fold-increase in caspase-3, -8, and -9 activities were determined by direct comparison to the level of un-induced control. For the caspase inhibitor assay, cells were pretreated with a synthetic pan-caspase inhibitor (Z-VAD-FMK), caspase-8 inhibitor (Z-IETD-FMK) and caspase-9 inhibitor (Z-LEHD-FMK) for 1 h before the addition of conjugate and the cell death were analyzed by MTT assay as discussed earlier.

For experiment [2], the system named is caspase-3 activity in LNCaP cells. The experiment in a line: Caspase colorimetric protease assay. The experiment is classed as cell-based, human. To be noted: 24 h. As to the method: as §1
In experiment [3] the test system is caspase-8 activity in PC-3 cells. The experiment in a line: Caspase colorimetric protease assay. The experiment is classed as cell-based, human. As to conditions: PC-3, 24 h, high dose. As to the method:
as §1

The subject of experiment [4] is caspase-9 activity in PC-3 cells. The experiment in a line: Caspase colorimetric protease assay. As to conditions: PC-3, 10, 20 and 40 μM, 24 h. The experiment is classed as cell-based, human. The procedure: as §1
In experiment [5] the test system is caspase-8 activity in LNCaP cells. The experiment in a line: Caspase colorimetric protease assay. The experiment is classed as cell-based, human. To be noted: 24 h. As to the method: as §1
Experiment [6] has as its system caspase-3 activity in PC-3 cells. The experiment can be described thus: Caspase colorimetric protease assay. The format is cell-based, human. As to conditions: PC-3, 10, 20 and 40 μM, 24 h. The procedure:
as §1

In experiment [7] the target is T1, androgen receptor in LNCaP cells (Homo sapiens, UniProt P10275, T878A).
T1 construct: LNCaP cells, that express endogenous AR; endogenous in cells; host or cells: LNCaP
T1 sequence (P10275 1-920 T878A): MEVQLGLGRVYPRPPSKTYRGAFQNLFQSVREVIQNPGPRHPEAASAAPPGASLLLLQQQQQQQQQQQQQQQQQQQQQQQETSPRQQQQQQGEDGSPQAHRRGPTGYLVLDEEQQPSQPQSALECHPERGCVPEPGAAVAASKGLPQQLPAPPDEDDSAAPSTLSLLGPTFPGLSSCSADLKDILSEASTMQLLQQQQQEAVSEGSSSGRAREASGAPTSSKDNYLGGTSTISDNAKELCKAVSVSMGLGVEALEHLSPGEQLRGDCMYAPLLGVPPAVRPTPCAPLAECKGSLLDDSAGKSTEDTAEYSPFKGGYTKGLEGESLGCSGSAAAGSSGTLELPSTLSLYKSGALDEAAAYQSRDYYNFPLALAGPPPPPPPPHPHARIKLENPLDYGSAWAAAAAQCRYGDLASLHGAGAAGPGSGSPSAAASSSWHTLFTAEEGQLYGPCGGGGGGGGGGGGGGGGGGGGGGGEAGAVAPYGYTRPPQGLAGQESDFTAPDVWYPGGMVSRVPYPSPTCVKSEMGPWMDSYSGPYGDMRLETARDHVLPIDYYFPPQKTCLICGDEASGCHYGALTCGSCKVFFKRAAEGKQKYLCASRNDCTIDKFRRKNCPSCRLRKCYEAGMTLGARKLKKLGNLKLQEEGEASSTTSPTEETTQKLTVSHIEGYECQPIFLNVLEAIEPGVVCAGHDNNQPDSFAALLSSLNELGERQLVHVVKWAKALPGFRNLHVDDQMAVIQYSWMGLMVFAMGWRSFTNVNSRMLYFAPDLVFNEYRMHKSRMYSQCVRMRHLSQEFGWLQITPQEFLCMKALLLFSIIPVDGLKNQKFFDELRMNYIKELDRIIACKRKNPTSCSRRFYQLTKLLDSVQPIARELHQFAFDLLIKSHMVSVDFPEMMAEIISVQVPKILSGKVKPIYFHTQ
The experiment in a line: AR transactivation luciferase assay with/without exogenous SRC-1 and GRIP-1. To be noted: 10 μM with DHT. The experiment is classed as cell-based. The procedure: The LNCaP cells were grown and transiently transfected with pMMTV-neomycin-luciferase plasmid (300 ng/10^5 cells) in RPMI media supplemented with 10% FBS using polyfect transfection reagent (Qiagen, CA, USA) according to manufacturer’s instructions. […] In case of PC-3 cells, they were similarly transfected, but in addition to pMMTV-neomycin-luciferase construct, they were also transfected with pSG5-hAR-puro plasmid (full length hAR in pSG5 expression vector) in the ratio of 5∶1 as indicated above. For experiments involving co-regulators, 50 ng of co-activator plasmids (25 ng each of GRIP-1 and SRC-1) along with pMMTV-neo-luc (250 ng) were transfected to LNCaP cells. To evaluate the transfection efficiency, 500 ng/105 cells of the SV40 promoter-Renilla luciferase (pRL-SV40) vector (Promega Madison, USA) were co-transfected as internal control. […] The values of luciferase for each lysates were normalized to the Renilla luciferase activity.

The results in this text go back to paper PMC3974779, “Pterostilbene-Isothiocyanate Conjugate Suppresses Growth of Prostate Cancer Cells Irrespective of Androgen Receptor Status” (PLoS ONE, 2014).

Consider `COc1cc(/C=C/c2ccc(O)c(/C=N/NC(N)=S)c2)cc(OC)c1` [conjugate, Pterostilbene-isothiocyanate conjugate], for which, in experiment [1], the caspase-9 activity entry is on record as “significant increase”. For the same molecule, the caspase-3 activity result in experiment [2] is reported as “significant increase”. In addition, the caspase-8 activity entry in experiment [3] is “no such induction was observed”; in experiment [5] it was “significant increase”. In experiment [4], the caspase-9 enzyme activity entry is “dose-dependent augmentation”. For the same molecule, in experiment [6], the caspase-3 enzyme activity entry is “dose-dependent augmentation”. Also, the “AR transactivation (DHT alone = 100%)” value is given as 102% in experiment [7] (with exogenous SRC-1 and GRIP-1); 64% in experiment [7] (without exogenous co-activators).
